These results are taken from patent US7550469B2, “Heterocyclic amide derivatives and their use as dopamine D3 receptor ligands” (Aventis Pharmaceuticals Inc., priority 2001, dated 2009).

In the first assay the target is T1, cloned human dopamine D3 receptors (Homo sapiens, UniProt P35462).
T1 construct: expressed in transfected cells; membrane homogenate
T1 sequence (P35462 whole entry): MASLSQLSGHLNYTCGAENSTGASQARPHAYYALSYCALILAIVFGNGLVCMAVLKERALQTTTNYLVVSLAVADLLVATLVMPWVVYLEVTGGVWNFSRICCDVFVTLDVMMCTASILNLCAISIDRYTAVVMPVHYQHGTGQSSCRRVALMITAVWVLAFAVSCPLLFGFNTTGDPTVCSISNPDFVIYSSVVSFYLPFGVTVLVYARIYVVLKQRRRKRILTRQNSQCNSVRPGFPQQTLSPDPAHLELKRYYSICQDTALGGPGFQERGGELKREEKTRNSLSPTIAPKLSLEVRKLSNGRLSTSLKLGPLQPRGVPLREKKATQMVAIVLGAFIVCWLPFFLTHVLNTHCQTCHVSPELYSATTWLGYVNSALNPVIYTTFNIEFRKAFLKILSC
The experiment in a line: [N-Methyl-3H]Spiroperidol binding to cloned human dopamine D3 receptors (Protocol 1). Conditions: Table 2; read-out: D3K1. In outline:
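Radioligand displacement with [N-methyl-3H]spiroperidol used a physiological-salt Tris buffer (0.05 M, pH 7.7; NaCl 120 mM, KCl 5 mM, CaCl2 2 mM, MgCl2 1 mM) and membranes of a high-expressing stable CHO clone carrying human D3. Total ligand concentration came from measured added CPM; 0.1% ascorbic acid was optional for oxidizable compounds.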
Turning to `CCOc1cccc2cc(C(=O)NCCCCN3CCCN(c4csc5cc(F)ccc45)CC3)oc12` [compound 827133], the Ki came to 12.6 nM.

Take `COc1cc(C)c2cc(C(=O)NCCCCN3CCCN(c4csc5cc(F)ccc45)CC3)oc2c1OC` [compound 827131]: the Ki was 4.18 nM.

Turning to `O=C(NC/C=C\CN1CCN(c2csc3cc(C(F)(F)F)ccc23)CC1)C1(c2ccccc2)CC1` [compound 827736], the Ki stood at 173 nM.

For `CN(C)c1ccc(C(=O)c2ccccc2C(=O)NCCCCN2CCCN(c3csc4cc(F)ccc34)CC2)cc1` [compound 817263], the Ki was 331 nM.

Regarding `O=C(NCCCCN1CCCN(c2csc3cc(F)ccc23)CC1)c1ccc2nonc2c1` [compound 826699], the Ki was found to be 6.73 nM.

`O=C(N[C@H](CO)CCCN1CCN(c2csc3cc(C(F)(F)F)ccc23)CC1)c1ccc2[nH]ccc2c1` [compound 815700]: the Ki was found to be 128 nM.

Still in this assay, the particulars now being: read-out: D3K1.
Turning to `O=C(NCCCCN1CCN(c2c(Cl)sc3cc(C(F)(F)F)ccc23)CC1)c1ccccc1Br` [compound 815578], the Ki is 117 nM.

Consider `O=C(NCCCCN1CCN(c2c(Cl)sc3cc(C(F)(F)F)ccc23)CC1)c1ccc2c(c1)OCO2` [compound 815563], for which the Ki was determined as 21 nM.

As for `COc1ccc(C(=O)NCCCCN2CCN(c3c(Cl)sc4cc(F)ccc34)CC2)cc1OC` [compound 815062], the Ki came out at 4.1 nM.

With `O=C(NCCCCN1CCN(c2csc3cc(C(F)(F)F)ccc23)CC1)c1ccccc1C(F)(F)F` [compound 815553], the Ki was 41 nM.

As to `O=C(NCCCCCN1CCN(c2csc3cc(C(F)(F)F)ccc23)CC1)c1ccc2[nH]ccc2c1` [compound 826799], the Ki turned out to be 6.48 nM.

For the compound `CC1(C)C(CNC(=O)c2ccc3ccccc3c2)C1CN1CCN(c2csc3cc(C(F)(F)F)ccc23)CC1` (stereo not drawn) [compound 826277], the Ki was 20.3 nM.

In the case of `O=C(NCCCCCN1CCN(c2csc3cc(C(F)(F)F)ccc23)CC1)c1cc2ccccc2s1` [compound 826773], the Ki was 11 nM.

In the case of `O=C(NCCCCN1CCN(c2csc3cc(C(F)(F)F)ccc23)CC1)c1cccs1` [81708A], the Ki turned out to be 4.5 nM.

`O=C(NCCCCCCN1CCN(c2csc3cc(C(F)(F)F)ccc23)CC1)c1cccc(Cl)c1` [compound 826747]: the Ki amounted to 0.12 nM.

In the case of `Cc1ccccc1C(=O)NCCCCCCN1CCN(c2csc3cc(C(F)(F)F)ccc23)CC1` [compound 826753], the Ki is 4.4 nM.

As to `O=C(NCCCCN1CCN(c2c(Cl)sc3cc(F)ccc23)CC1)c1ccccc1Br` [compound 815070], the Ki worked out at 34.4 nM.

As to `O=C(NC/C=C\CN1CCN(c2csc3cc(C(F)(F)F)ccc23)CC1)c1ccc(F)cc1` [compound 826341], the Ki was 11 nM.

As to `O=C(NCCCCCCN1CCN(c2csc3cc(C(F)(F)F)ccc23)CC1)c1ccc2cc[nH]c2c1` [compound 826742], the Ki came to 1.7 nM.

On to `O=C(NC/C=C\CN1CCN(c2csc3cc(C(F)(F)F)ccc23)CC1)c1cc(F)cc(F)c1` [compound 826338], for which the Ki came out at 93 nM.

Turning to `O=C(NC/C=C\CN1CCN(c2csc3cc(C(F)(F)F)ccc23)CC1)C1CCC1` [compound 826333], the Ki amounted to 24 nM.

As for `O=C(N[C@H](CO)CCCN1CCN(c2csc3cc(C(F)(F)F)ccc23)CC1)c1ccc2[nH]ccc2c1` [compound 815700], the Ki stood at 128 nM.

As to `O=C(NCCCCN1CCN(c2c(Cl)sc3cc(F)ccc23)CC1)c1c(F)cccc1F` [compound 815069], the Ki is 15 nM.

With `COc1ccc(C(=O)N[C@@H](CO)CCCN2CCN(c3csc4cc(C(F)(F)F)ccc34)CC2)cc1` [compound 815668], the Ki came out at 150 nM.

For the compound `O=C(NCC1CCC1CN1CCN(c2csc3cc(C(F)(F)F)ccc23)CC1)c1cc2ccccc2[nH]1` (stereo not drawn) [compound 826290], the Ki came to 72 nM.

The assay is the same for the next values; noted with them: the 13th table, unit inferred; read-out: D3Ki.
For `O=C(NCCCCN1CCC(c2noc3ccsc23)CC1)c1cc2ccccc2s1` [compound 815147], the Ki came out at 371 nM.

On to `Cn1c(C(=O)NCCCCN2CCCN(c3csc4cc(C(F)(F)F)ccc34)CC2)cc2ccccc21` [S980648], for which the Ki is 35 nM.

As for `O=C(NCCCCN1CCCN(c2csc3cc(C(F)(F)F)ccc23)CC1)c1n[nH]c2ccccc12` [S980653], the Ki was 61 nM.

As for `O=C(NCCCCN1CCCN(c2csc3cc(C(F)(F)F)ccc23)CC1)c1ccc2cc[nH]c2c1` [S980652], the Ki turned out to be 16.8 nM.

Regarding `Cc1ccccc1C(=O)NCCCCN1CCCN(c2csc3cc(F)ccc23)CC1` [compound 822199], the Ki is 3.8 nM.

On to `CCCCCCC(=O)NCCCCCN1CCC(c2noc3ccsc23)CC1` [compound 816202], for which the Ki came out at 326 nM.

For the compound `O=C(NCCCCN1CCCN(c2csc3cc(F)ccc23)CC1)c1cc([N+](=O)[O-])cc([N+](=O)[O-])c1` [S982535], the Ki was 5.3 nM.

Turning to `O=C(NCCCCN1CCCN(c2csc3cc(F)ccc23)CC1)c1cccc2c1-c1ccccc1C2=O` [S982536], the Ki was 1.4 nM.

Regarding `O=C(NCCCCN1CCCN(c2csc3cc(C(F)(F)F)ccc23)CC1)c1ccc(F)cc1` [S980637], the Ki is 43 nM.

For `O=C(Cc1ccc(C(F)(F)F)cc1)NCCCCN1CCCN(c2csc3cc(F)ccc23)CC1` [S982508], the Ki was 40.9 nM.

Regarding `O=C(NCCCCCN1CCCN(c2csc3cc(F)ccc23)CC1)c1cccc(F)c1` [S984493], the Ki was 25.9 nM.

Take `O=C(NCCCCN1CCCN(c2csc3cc(C(F)(F)F)ccc23)CC1)c1ccc(-c2ccccc2)cc1` [S980641]: the Ki worked out at 29 nM.

With `O=C(Cc1ccccc1F)NCCCCN1CCCN(c2csc3cc(F)ccc23)CC1` [S982514], the Ki stood at 0.59 nM.

The same assay, now with this note: the 14th table; read-out: D3 Ki.
As to `O=C(NCCCCCN1CCN(c2csc3cc(C(F)(F)F)ccc23)CC1)c1ccc2[nH]ccc2c1` [compound 826799], the Ki was determined as 6.48 nM.

In the case of `O=C(NCCCCCN1CCN(c2csc3cc(C(F)(F)F)ccc23)CC1)c1cc2ccccc2s1` [compound 826773], the Ki came out at 11 nM.

As for `O=C(NCCCCCCN1CCN(c2csc3cc(C(F)(F)F)ccc23)CC1)c1cccc(Cl)c1` [compound 826747], the Ki came to 0.12 nM.

Consider `Cc1ccccc1C(=O)NCCCCCCN1CCN(c2csc3cc(C(F)(F)F)ccc23)CC1` [compound 826753], for which the Ki came to 4.4 nM.

`O=C(NCCCCCCN1CCN(c2csc3cc(C(F)(F)F)ccc23)CC1)c1ccc2cc[nH]c2c1` [compound 826742]: the Ki worked out at 1.7 nM.

In the case of `O=C(N[C@H](CO)CCCN1CCN(c2csc3cc(C(F)(F)F)ccc23)CC1)c1ccc2[nH]ccc2c1` [compound 815700], the Ki turned out to be 128 nM.

On to `COc1ccc(C(=O)N[C@@H](CO)CCCN2CCN(c3csc4cc(C(F)(F)F)ccc34)CC2)cc1` [compound 815668], for which the Ki is 150 nM.

Staying with this assay, now noted: the 15th table; read-out: D3 Ki.
In the case of `O=C(NCCCCN1C2CCC1CC(c1noc3ccccc13)C2)c1ccc(Cl)cc1` (stereo not drawn) [compound 816523], the Ki is 165 nM.

Staying with this assay, now noted: the 16th table; read-out: D3 Ki.
Consider `CCOc1cccc2cc(C(=O)NCCCCN3CCCN(c4csc5cc(F)ccc45)CC3)oc12` [compound 827133], for which the Ki is 12.6 nM.

For the compound `COc1cc(C)c2cc(C(=O)NCCCCN3CCCN(c4csc5cc(F)ccc45)CC3)oc2c1OC` [compound 827131], the Ki was found to be 4.18 nM.

For `CN(C)c1ccc(C(=O)c2ccccc2C(=O)NCCCCN2CCCN(c3csc4cc(F)ccc34)CC2)cc1` [compound 817263], the Ki was 331 nM.

As for `O=C(NCCCCN1CCCN(c2csc3cc(F)ccc23)CC1)c1ccc2nonc2c1` [compound 826699], the Ki turned out to be 6.73 nM.

Staying with this assay, now noted: the 17th table; read-out: D3 Ki.
Consider `O=C(c1cc2ccccc2s1)N(Cc1ccccc1)CC1CC1CN1CCCN(c2csc3cc(F)ccc23)CC1` (racemic) [compound 830398], for which the Ki came to 15.9 nM.

Take `COc1cc(OC)cc(C(=O)N(Cc2ccccc2)CC2CC2CN2CCCN(c3csc4cc(F)ccc34)CC2)c1` (racemic) [compound 830396]: the Ki came out at 16.5 nM.

Staying with this assay, now noted: the 18th table; read-out: D3 Ki.
For `O=C(NCc1sccc1CN1CCN(c2csc3cc(F)ccc23)CC1)c1ccc2ccccc2c1` [compound 826300], the Ki was determined as 36 nM.

Turning to `COc1cc(OC)cc(C(=O)NCc2sccc2CN2CCN(c3csc4cc(F)ccc34)CC2)c1` [compound 826297], the Ki stood at 31 nM.

Still in this assay, the particulars now being: the 19th table; read-out: D3 Ki.
Take `O=C(Nc1ccc(CN2CCN(c3csc4cc(F)ccc34)CC2)cc1)c1cccs1` [compound 822213]: the Ki worked out at 63 nM.

In the case of `COc1ccc(C(=O)Nc2ccc(CN3CCN(c4csc5cc(F)ccc45)CC3)cc2)cc1OC` [compound 822208], the Ki is 183 nM.

The assay is the same for the next values; noted with them: the 21st table; read-out: D3 Ki.
Turning to `COc1ccc2[nH]c(C(=O)NCCCCN3[C@H](C)CN(c4csc5cc(F)ccc45)C[C@@H]3C)cc2c1` [compound 826960], the Ki was 15.3 nM.

Take `C[C@@H]1CN(c2csc3cc(C(F)(F)F)ccc23)C[C@H](C)N1CCCCNC(=O)c1ccc(OC(F)(F)F)cc1` [compound 827040]: the Ki worked out at 165 nM.

Consider `C[C@@H]1CN(c2csc3cc(C(F)(F)F)ccc23)C[C@H](C)N1CCCCNC(=O)c1ccncc1` [compound 826937], for which the Ki is 253 nM.

Turning to `COc1ccc2[nH]c(C(=O)NCCCCN3[C@H](C)CN(c4csc5cc(C(F)(F)F)ccc45)C[C@@H]3C)cc2c1` [compound 826951], the Ki worked out at 41.3 nM.

On to `C[C@@H]1CN(c2csc3cc(F)ccc23)C[C@H](C)N1CCCCNC(=O)c1cccc(Cl)c1` [compound 827047], for which the Ki was found to be 65.1 nM.

With `Cc1ccccc1C(=O)NCCCCN1[C@H](C)CN(c2csc3cc(F)ccc23)C[C@@H]1C` [compound 826941], the Ki stood at 36.3 nM.

In the case of `C[C@@H]1CN(c2csc3cc(F)ccc23)C[C@H](C)N1CCCCNC(=O)c1cc2ccccc2o1` [compound 827036], the Ki came out at 51.2 nM.

As for `C[C@@H]1CN(c2csc3cc(F)ccc23)C[C@H](C)N1CCCCNC(=O)c1cccc(F)c1` [compound 827053], the Ki was 53.9 nM.

Still in this assay, the particulars now being: the 22nd table; read-out: D3 Ki.
For `O=C(NCCCCN1CCN(c2nn(C(=O)c3ccc(C(F)(F)F)cc3)c3ccsc23)CC1)c1ccc(C(F)(F)F)cc1` [compound 825149], the Ki was determined as 164 nM.

Staying with this assay, now noted: the 23rd table; read-out: D3 Ki.
For the compound `c1cc2onc(C3CCN(CC4CC4CN4CCC(c5noc6ccsc56)CC4)CC3)c2s1` (racemic) [831205DA], the Ki is 6.38 nM.

`COc1cccc2c(C3CCN(C[C@@H]4C[C@H]4CN[C@H]4CC[C@H](C)CC4)CC3)noc12` [compound 833329]: the Ki is 31.9 nM.

On to `C[C@H]1CC[C@H](NC[C@@H]2C[C@H]2CN2CCC(c3noc4c(C(F)(F)F)cccc34)CC2)CC1` [compound 832275], for which the Ki was determined as 33.6 nM.

Staying with this assay, now noted: the 24th table; read-out: D3 Ki.
In the case of `O=S(=O)(NCC1CC1CN1CCC(c2noc3ccsc23)CC1)c1ccc(OC(F)(F)F)cc1` (stereo not drawn) [compound 831513], the Ki was determined as 65.5 nM.

In the case of `COc1ccc(S(=O)(=O)NCC2CC2CN2CCN(c3csc4cc(C(F)(F)F)ccc34)CC2)cc1` (stereo not drawn) [compound 831500], the Ki worked out at 28.1 nM.

Consider `O=S(=O)(NCC1CC1CN1CCN(c2csc3cc(C(F)(F)F)ccc23)CC1)c1ccc(OC(F)(F)F)cc1` (stereo not drawn) [compound 831592], for which the Ki was 195 nM.

The assay is the same for the next values; noted with them: the 26th table; read-out: D3 Ki.
For the compound `OC(CCN1CCC(c2noc3ccsc23)CC1)CN1CCN(c2ccc(F)cc2)CC1` (stereo not drawn) [compound 831939], the Ki came to 90 nM.
